This is an account of results in patent publication US9822099B2, “Triazole derivatives” (priority 2013, dated 2017).

For one series, the system named is Puccinia recondita. The experiment in a line: Example B: in vivo preventive test on Puccinia recondita (brown rust on wheat). Particulars: wheat plants, preventive spray, evaluated 11 days after inoculation. As for the experimental part:
The young plants of wheat are treated by spraying the active ingredient prepared as described above. Control plants are treated only with an aqueous solution of acetone/Dimethyl sulfoxide/Tween®. After 24 hours, the plants are contaminated by spraying the leaves with an aqueous suspension of Puccinia recondita spores.

Another series deals with Septoria tritici. The experiment in a line: Example D: in vivo preventive test on Septoria tritici (leaf spot on wheat). Particulars: wheat plants, preventive spray, evaluated 24 days after inoculation. As for the experimental part: The young plants of wheat are treated by spraying the active ingredient prepared as described above. Control plants are treated only with an aqueous solution of acetone/Dimethyl sulfoxide/Tween®. After 24 hours, the plants are contaminated by spraying the leaves with an aqueous suspension of Septoria tritici spores.

The next series relates to Sphaerotheca fuliginea. The experiment in a line: Example E: in vivo preventive test on Sphaerotheca fuliginea (powdery mildew on cucurbits). Particulars: gherkin plants, preventive spray, evaluated 15 days after inoculation. The method, then:
The young plants of gherkin are treated by spraying the active ingredient prepared as described above. Control plants are treated only with an aqueous solution of acetone/Dimethyl sulfoxide/Tween®. After 24 hours, the plants are contaminated by spraying the leaves with an aqueous suspension of Sphaerotheca fuliginea spores.

Another series deals with Uromyces appendiculatus. The experiment in a line: Example F: in vivo preventive test on Uromyces appendiculatus (bean rust). Particulars: bean plants, preventive spray, evaluated 11 days after inoculation. As for the experimental part:
The young plants of bean are treated by spraying the active ingredient prepared as described above. Control plants are treated only with an aqueous solution of acetone/Dimethyl sulfoxide/Tween®. After 24 hours, the plants are contaminated by spraying the leaves with an aqueous suspension of Uromyces appendiculatus spores.

Series [1] relates to Blumeria graminis f. sp. hordei. The experiment in a line: Example G: Blumeria test (barley)/preventive. The series is classed as in vivo. Particulars: 500 ppm of active ingredient, preventive, evaluated 7 days after inoculation. The method, then:
(§1) Solvent: 49 parts by weight of N,N-dimethylacetamide Emulsifier: 1 part by weight of alkylaryl polyglycol ether To produce a suitable preparation of active compound, 1 part by weight of active compound or active compound combination is mixed with the stated amounts of solvent and emulsifier, and the concentrate is diluted with water to the desired concentration. To test for preventive activity, young plants are sprayed with the preparation of active compound or active compound combination at the stated rate of application. After the spray coating has been dried, the plants are dusted with spores of Blumeria graminis f. sp. hordei.

The subject of a further series is Fusarium culmorum. The experiment in a line: Example H: Fusarium culmorum-test (wheat)/curative. The series is classed as in vivo. Particulars: 500 ppm of active ingredient, curative, evaluated 5 days after inoculation. The method, then:
(§2) Solvent: 49 parts by weight of N,N-dimethylacetamide
(§3) Emulsifier: 1 part by weight of alkylaryl polyglycol ether
(§4) To produce a suitable preparation of active compound, 1 part by weight of active compound or active compound combination is mixed with the stated amounts of solvent and emulsifier, and the concentrate is diluted with water to the desired concentration.
To test for curative activity, young plants are slightly injured by using a sandblast and afterwards they are sprayed with a conidia suspension of Fusarium culmorum and placed for 24 hours in a greenhouse under a translucent incubation cabinet at a temperature of approximately 22° C. and a relative atmospheric humidity of approximately 100% and are subsequently sprayed with the preparation of active compound at the stated rate of application.
After the spray coating has been dried, the plants remain in the greenhouse under translucent incubation cloches at a temperature of approximately 22° C. and a relative atmospheric humidity of approximately 100%.
(§5) The test is evaluated 5 days after the inoculation. 0% means an efficacy which corresponds to that of the untreated control, while an efficacy of 100% means that no disease is observed.

A further series deals with Fusarium graminearum. In kind it is in vivo. Particulars: 500 ppm of active ingredient; barley, preventive; evaluated 5 days after inoculation.
For series [2], the system named is Fusarium nivale (var. majus). The experiment in a line: Example J: Fusarium nivale (var. majus)-test (wheat)/preventive. Particulars: 500 ppm of active ingredient, preventive, evaluated 5 days after inoculation. The series is classed as in vivo. The method, then: as §2, §3, §4
To test for preventive activity, young plants are sprayed with the preparation of active compound or active compound combination at the stated rate of application.
After the spray coating has been dried, the plants are slightly injured by using a sandblast and afterwards they are sprayed with a conidia suspension of Fusarium nivale (var. majus).
The plants are placed in the greenhouse under a translucent incubation cabinet at a temperature of approximately 10° C. and a relative atmospheric humidity of approximately 100%.
as §5

A further series concerns Leptosphaeria nodorum. The experiment in a line: Example K: Leptosphaeria nodorum test (wheat)/preventive. The series is classed as in vivo. Particulars: 500 ppm of active ingredient, preventive, evaluated 8 days after inoculation. The method, then: as §1, with “sprayed” for “dusted”, “a spore suspension” for “spores”, “Leptosphaeria nodorum.” for “Blumeria graminis f. sp. hordei.”

A further series deals with Phakopsora pachyrhizi. The experiment in a line: Example L: Phakopsora test (soybeans)/preventive. Particulars: preventive, evaluated 7 days after inoculation. The series is classed as in vivo.
The subject of the next series is Botrytis cinerea. The experiment in a line: Example A: in vivo preventive test on Botrytis cinerea (grey mould). Particulars: 500 ppm of active ingredient; gherkin plants, preventive spray; evaluated 4 to 5 days after inoculation. The method, then: The young plants of gherkin are treated by spraying the active ingredient prepared as described above. Control plants are treated only with an aqueous solution of acetone/Dimethyl sulfoxide/Tween®. After 24 hours, the plants are contaminated by spraying the leaves with an aqueous suspension of Botrytis cinerea spores.

The next series has as its system Pyrenophora teres. The experiment in a line: Example C: in vivo preventive test on Pyrenophora teres (net blotch on barley). Particulars: 500 ppm of active ingredient; barley plants, preventive spray; evaluated 14 days after inoculation. As for the experimental part:
The young plants of barley are treated by spraying the active ingredient prepared as described above. Control plants are treated only with an aqueous solution of acetone/Dimethyl sulfoxide/Tween®. After 24 hours, the plants are contaminated by spraying the leaves with an aqueous suspension of Pyrenophora teres spores.

Another series concerns Pyricularia oryzae. In kind it is in vivo. Particulars: 500 ppm of active ingredient; rice, preventive; evaluated 8 days after inoculation.

Where two headings read alike, the source gives them in different places. Marks after values point to notes of the source that are not given here.

For the compound `OC(Cc1ccnnc1Cl)(Cn1cncn1)C1(Cl)CC1` (stereo not shown) [Example I-45], the Eff. % in the series on Puccinia recondita (100 ppm of active ingredient) is 97%; with Septoria tritici (100 ppm of active ingredient), 100%; in the series with Sphaerotheca fuliginea (100 ppm of active ingredient), 100%; in the series with Uromyces appendiculatus (100 ppm of active ingredient), 100%; in [1], 100%; in the series with Fusarium culmorum, 100%. Moreover, the Eff. % in the series on Fusarium graminearum amounted to 100%; in series [2] it was 100%; in the series with Leptosphaeria nodorum it was 88%; in the series on Phakopsora pachyrhizi (10 ppm of active ingredient) it was 93%. The LogP (pH 2.7) was 1.31^[a].
Take `OC(Cc1cc(Cl)ncc1Cl)(Cn1cncn1)C1(Cl)CC1` (stereo not shown) [Example I-58]: the Eff. % was 98% with Botrytis cinerea; 97% in the series with Puccinia recondita (500 ppm of active ingredient); 95% with Pyrenophora teres; 100% with Septoria tritici (500 ppm of active ingredient); 100% in the series with Sphaerotheca fuliginea (500 ppm of active ingredient); 100% in the series on Uromyces appendiculatus (500 ppm of active ingredient). Also, the Eff. % in [1] was found to be 100%; in the series on Fusarium graminearum, 100%; in series [2] it was 100%; in the series with Leptosphaeria nodorum, 93%; in the series on Phakopsora pachyrhizi (10 ppm of active ingredient), 89%; in the series with Pyricularia oryzae, 100%. For the same compound, the LogP (pH 2.7) was 2.53^[a].
As for `OC(Cc1cccnc1Cl)(Cn1cncn1)C1(Cl)CC1` (single isomer, unassigned) [Example I-95], the Eff. % (in series [1]; with Fusarium graminearum; in series [2]; in the series with Leptosphaeria nodorum; in the series with Pyricularia oryzae) was 100% each time. The LogP (pH 2.7) is 1.81^[a] and the LogP (pH 7.8) was 1.79^[b];.
As for `OC(Cc1ccnc(Cl)c1)(Cn1cncn1)C1(Cl)CC1` (stereo not shown) [Example I-39], the Eff. % turned out to be 99% in the series on Botrytis cinerea; 97% in the series with Puccinia recondita (500 ppm of active ingredient); 100% in the series on Pyrenophora teres; 100% in the series with Septoria tritici (500 ppm of active ingredient); 100% in the series on Sphaerotheca fuliginea (500 ppm of active ingredient); 100% in the series with Uromyces appendiculatus (500 ppm of active ingredient). Also, the Eff. % in series [1] was found to be 100%; in the series with Fusarium culmorum, 100%; with Fusarium graminearum, 100%; in series [2] it was 100%; with Leptosphaeria nodorum it was 100%; in the series on Phakopsora pachyrhizi (10 ppm of active ingredient), 88%. Further, the Eff. % in the series on Pyricularia oryzae was determined as 80%. In addition, the LogP (pH 2.7) was 1.76^[a].
Consider `CC(CF)(CF)C(O)(Cc1ccncc1F)Cn1cncn1` (stereo not shown) [Example I-21], for which the Eff. % is 98% in the series on Puccinia recondita (100 ppm of active ingredient); 100% with Septoria tritici (100 ppm of active ingredient); 100% with Sphaerotheca fuliginea (100 ppm of active ingredient); 100% in the series with Uromyces appendiculatus (100 ppm of active ingredient); 100% in series [1]; 100% in the series on Fusarium culmorum. In addition, the Eff. % in the series on Fusarium graminearum was 100%; in [2] it was 100%; in the series on Leptosphaeria nodorum, 94%; with Phakopsora pachyrhizi (10 ppm of active ingredient) it was 93%. For the same compound, the LogP (pH 2.7) is 1.27^[a].
With `CC(CF)(CF)C(O)(Cc1ccnc(Cl)c1F)Cn1cncn1` (stereo not shown) [Example I-61], the Eff. % in the series on Botrytis cinerea came to 99%; in the series with Puccinia recondita (500 ppm of active ingredient), 98%; in the series with Pyrenophora teres, 93%; with Septoria tritici (500 ppm of active ingredient), 100%; with Sphaerotheca fuliginea (500 ppm of active ingredient), 100%; in the series with Uromyces appendiculatus (500 ppm of active ingredient) it was 100%. For the same compound, the Eff. % amounted to 100% in [1]; 100% in the series with Fusarium culmorum; 100% in the series on Fusarium graminearum; 100% in series [2]; 75% with Leptosphaeria nodorum; 80% with Phakopsora pachyrhizi (10 ppm of active ingredient). The LogP (pH 2.7) is 1.87^[a].
Take `OC(Cc1cccc(Cl)n1)(Cn1cncn1)C1(Cl)CC1` (stereo not shown) [Example I-29]: the Eff. % in the series on Botrytis cinerea stood at 94%; in the series with Puccinia recondita (500 ppm of active ingredient), 97%; with Pyrenophora teres it was 95%; in the series on Septoria tritici (500 ppm of active ingredient), 100%; with Sphaerotheca fuliginea (500 ppm of active ingredient), 100%; in the series with Uromyces appendiculatus (500 ppm of active ingredient), 100%. Moreover, the Eff. % is 100% in series [1]; 100% in the series with Fusarium culmorum; 100% with Fusarium graminearum; 100% in series [2]; 100% in the series with Leptosphaeria nodorum; 70% with Pyricularia oryzae. In addition, the LogP (pH 2.7) was 2.18^[a].
As for `OC(Cc1ccc(Cl)nc1)(Cn1cncn1)C1(Cl)CC1` (stereo not shown) [Example I-4], the Eff. % in the series on Botrytis cinerea is given as 100%; with Puccinia recondita (500 ppm of active ingredient), 100%; with Septoria tritici (500 ppm of active ingredient), 96%; in the series with Sphaerotheca fuliginea (500 ppm of active ingredient), 100%; in the series on Uromyces appendiculatus (500 ppm of active ingredient) it was 97%; in series [1], 100%. For the same compound, the Eff. % in the series on Fusarium culmorum is reported as 92%; in series [2], 71%; in the series on Leptosphaeria nodorum, 80%; in the series on Phakopsora pachyrhizi (100 ppm of active ingredient), 95%. Where the note is “pH 2.7”, the LogP was 1.84^[a].
As for `OC(Cc1ccncc1C(F)(F)F)(Cn1cncn1)C1(Cl)CC1` (racemic) [Example I-81], the Eff. % came out at 99% with Botrytis cinerea; 100% in the series with Puccinia recondita (500 ppm of active ingredient); 97% in the series on Pyrenophora teres; 100% in the series on Septoria tritici (500 ppm of active ingredient); 100% in the series with Sphaerotheca fuliginea (500 ppm of active ingredient); 100% with Uromyces appendiculatus (500 ppm of active ingredient). The Eff. % is reported as 100% in [1]; 100% in the series with Fusarium graminearum; 100% in [2]; 100% with Leptosphaeria nodorum; 85% in the series with Phakopsora pachyrhizi (10 ppm of active ingredient); 100% in the series with Pyricularia oryzae. Besides, the LogP (pH 2.7) was 2.08^[a].
On to `OC(Cc1ccncc1Cl)(Cn1cncn1)C1CCC1` (racemic) [Example I-77], for which the Eff. % in the series on Botrytis cinerea came to 100%; in the series on Puccinia recondita (500 ppm of active ingredient), 98%; in the series with Pyrenophora teres it was 86%; in the series with Septoria tritici (500 ppm of active ingredient), 100%; in the series with Sphaerotheca fuliginea (500 ppm of active ingredient) it was 100%; with Uromyces appendiculatus (500 ppm of active ingredient) it was 100%. Besides, the Eff. % in series [1] is 100%; in the series on Fusarium graminearum, 86%; in [2], 83%; with Phakopsora pachyrhizi (100 ppm of active ingredient), 100%; in the series on Pyricularia oryzae, 86%. For the setting “pH 2.7”, the LogP is 1.46^[a].
